For the data set the following is noted: 24° C.

The source of these data is patent US20120259126A1, “[…]” (UNIVERSITAT HEIDELBERG, priority 2009, published 2012).

Take `C1CCOC1.C1CCOC1.C1CCOC1.C1CCOC1.CC(C)(C)c1cc2c(c(C(C)(C)C)c1)O[B-]1(Oc3c-2cc(C(C)(C)C)cc3C(C)(C)C)Oc2c(cc(C(C)(C)C)cc2C(C)(C)C)-c2cc(C(C)(C)C)cc(C(C)(C)C)c2O1.[Li+]` [lithium tetrakis(tetrahydrofuran)bis(3,3′,5,5′-tetra-tert-butyl-2,2′-diphenolato)borate(III)]: the “solubility in pentane (maximum concentrations)” value is “at least 21 g/L”.
